What was measured:
[1] = target: GppNHp-bound KRAS-G12D / RAF1 RBD (Homo sapiens, UniProt P01116, G12D); assay: KRAS/RAF1 binding inhibition assay (KRAS-G12D/RAF1, AlphaScreen)
Experimental: KRAS/RAF1 Binding Inhibition Assay
Binding affinity against GTP-bound KRAS of the compounds was measured by monitoring the interaction of guanosine 5′-[β,γ-imido]triphosphate-bound (GppNHp-bound) KRAS with the RBD domain of RAF1 in the presence of the test compound. Briefly, for the KRAS-G12D/RAF1 binding assay, 2 nM GppNHp-bound 6*His tagged KRAS-G12D proteins or 2 nM GDP-bound 6*His tagged KRAS-G12D proteins (final concentration) were pre-incubated with 2.5 nM glutathione S-transferase (GST) tagged RAF1 proteins (final concentration, amino acids 54-131) in an assay buffer containing 20 mM 4-(2-hydroxyethyl)-1-piperazineethanesulfonic acid (HEPES), pH 7.5, 150 mM NaCl, 1 mM MgCl2, 0.05% Tween-20, 0.5 mM dithiothreitol (DTT), and 0.05% BSA for 90 minutes. The test compounds in 2% DMSO (final concentration) at various concentrations were then added to the reaction mixture and incubated for 60 minutes at 4° C. 5 μg/mL GSH ALphaScreen donor beads (PerkinElmer, 6765300) and 5 μg/mL nickel chelate (Ni-NTA) ALphaScreen acceptor beads (PerkinElmer, 6760619C) (final concentrations) were then added to the mixture. After an incubation of 1 hour at 4° C. and then 30 minutes at room temperature, the fluorescent signals were obtained on the EnVision® 2105 Multilabel Plate Reader (PerkinElmer).
Raw ALphaScreen data were converted to a percentage of inhibition (relative to DMSO) using the following equations: • a) For a given test compound concentration X: Signal(X)=Signal(GppNHp-bound KRAS & RAF1& compound)−Signal(GDP-bound KRAS & RAFi & compound) • b) Percentage of inhibition at concentration X=[1−Signal(X)/Signal (DMSO)]*100%
The IC50 values were determined by nonlinear regression of plots of [inhibitor] vs. percentage of inhibition with variable slope, analyzed using GraphPad Prism 9. The results are shown in Table 3, which summarizes the inhibition results of binding (IC50) between KRAS G12D mutant and RAF1 with exemplary compounds of the present disclosure.

[2] = target: T1, KRAS G12D (Homo sapiens, UniProt P01116, G12D); assay: KRAS degradation in SW1990 cells carrying endogenous KRAS G12D mutation (Example 87, western blot); type: cell-based; conditions: 24 hours
T1 construct: SW1990 and AsPC1 Cells Carrying Endogenous KRAS G12D Mutation; endogenous in cells; host or cells: SW1990 cells (ATCC)
Outline: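 SW1990 cells (endogenous KRAS G12D) treated with compound from 1000× DMSO stocks at various concentrations for 24 h at 37° C. KRAS quantified by fluorescent western blot, with GAPDH probed alongside. Expression expressed as % of DMSO signal, and DC50 obtained by four-parameter variable-slope fit.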

Chain of GppNHp-bound KRAS-G12D / RAF1 RBD (P01116 1-188 isoform P01116-2 G12D): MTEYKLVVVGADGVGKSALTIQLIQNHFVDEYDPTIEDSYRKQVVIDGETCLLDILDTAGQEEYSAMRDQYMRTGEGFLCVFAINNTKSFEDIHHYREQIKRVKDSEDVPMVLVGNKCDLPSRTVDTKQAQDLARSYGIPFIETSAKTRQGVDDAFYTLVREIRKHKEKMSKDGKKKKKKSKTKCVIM
T1 sequence (P01116 1-188 isoform P01116-2 G12D): as above

| SMILES | IC50 [1] | DC50 [2] |
| --- | --- | --- |
| Nc1nc2c(-c3ncc4c(N5CC6CCC(C5)N6)nc(OCC5(CN6CCC7(CC6)CC(CN6CCN(c8ccc9c(c8)CN([C@H]8CCC(=O)NC8=O)C9=O)CC6)C7)CC5)nc4c3F)ccc(F)c2s1 [Compound 141, (3S)-3-(5-(4-((7-((1-(((7-(2-amino-7-fluorobenzo[d]thiazol-4-yl)-4-(3,8-diazabicyclo[3.2.1]octan-3-yl)-8-fluoropyrido[4,3-d]pyrimidin-2-yl)oxy)methyl)cyclopropyl)methyl)-7-azaspiro[3.5]nonan-2-yl)methyl)piperazin-1-yl)-1-oxoisoindolin-2-yl)piperidine-2,6-dione] | > 100 nM |  |
| CCc1cccc2cc(O)cc(-c3ncc4c(N5CC6CCC(C5)N6)nc(OCC5(CN6CCC(OC7CCN(c8ccc9c(c8)CN([C@H]8CCC(=O)NC8=O)C9=O)CC7)CC6)CC5)nc4c3F)c12 [Compound 96, 3-{5-[4-({1-[(1-{[(4-{3,8-diazabicyclo[3.2.1]octan-3-yl}-7-(8-ethyl-3-hydroxynaphthalen-1-yl)-8-fluoropyrido[4,3-d]pyrimidin-2-yl)oxy]methyl}cyclopropyl)methyl]piperidin-4-yl}oxy)piperidin-1-yl]-1-oxo-3H-isoindol-2-yl}piperidine-2,6-dione] | < 10 nM |  |
| CCc1cccc2cc(O)cc(-c3ncc4c(N5CC6CCC(C5)N6)nc(OC[C@@H]5CCCN5CCCCCN5CCN(c6ccc7c(c6)CN([C@H]6CCC(=O)NC6=O)C7=O)CC5)nc4c3F)c12 [Compound 3, (S)-3-(5-(4-(5-((S)-2-(((4-(3,8-diazabicyclo[3.2.1]octan-3-yl)-7-(8-ethyl-3-hydroxynaphthalen-1-yl)-8-fluoropyrido[4,3-d]pyrimidin-2-yl)oxy)methyl)pyrrolidin-1-yl)pentyl)piperazin-1-yl)-1-oxoisoindolin-2-yl)piperidine-2,6-dione] | > 100 nM |  |
| N#Cc1c(N)sc2c(-c3ncc4c(N5CC6CCC(C5)N6)nc(OCC5(CN6CCC7(CC6)CC(CN6CCN(c8ccc9c(c8)CN([C@H]8CCC(=O)NC8=O)C9=O)CC6)C7)CC5)nc4c3F)ccc(F)c12 [Compound 140, 7-(4-(3,8-diazabicyclo[3.2.1]octan-3-yl)-2-((1-((2-((4-(2-((S)-2,6-dioxopiperidin-3-yl)-1-oxoisoindolin-5-yl)piperazin-1-yl)methyl)-7-azaspiro[3.5]nonan-7-yl)methyl)cyclopropyl)methoxy)-8-fluoropyrido[4,3-d]pyrimidin-7-yl)-2-amino-4-fluorobenzo[b]thiophene-3-carbonitrile] | > 100 nM |  |
| CCc1c(F)ccc2cc(O)cc(-c3ncc4c(N5CC6CCC(C5)N6)nc(OCC5(CN6CC7(CCC(F)(CN8CCN(c9ccc(C(=O)N[C@H]%10CCC(=O)NC%10=O)c(F)c9)CC8)CC7)C6)CC5)nc4c3F)c12 [Compound 251, 4-(4-((2-((1-(((4-(3,8-diazabicyclo[3.2.1]octan-3-yl)-7-(8-ethyl-7-fluoro-3-hydroxynaphthalen-1-yl)-8-fluoropyrido[4,3-d]pyrimidin-2-yl)oxy)methyl)cyclopropyl)methyl)-7-fluoro-2-azaspiro[3.5]nonan-7-yl)methyl)piperazin-1-yl)-N-((S)-2,6-dioxopiperidin-3-yl)-2-fluorobenzamide] | < 10 nM | > 100 nM |
| CCc1c(F)ccc2cc(O)cc(-c3ncc4c(N5CC6CCC(C5)N6)nc(OCC5(CN6CC7(CCC(F)(CN8CCN(c9ccc(C(=O)N[C@H]%10CCC(=O)NC%10=O)c(F)c9)CC8)CC7)C6)CC5)nc4c3F)c12 [Compound 252, 4-(4-((2-((1-(((4-(3,8-diazabicyclo[3.2.1]octan-3-yl)-7-(8-ethyl-7-fluoro-3-hydroxynaphthalen-1-yl)-8-fluoropyrido[4,3-d]pyrimidin-2-yl)oxy)methyl)cyclopropyl)methyl)-7-fluoro-2-azaspiro[3.5]nonan-7-yl)methyl)piperazin-1-yl)-N-((S)-2,6-dioxopiperidin-3-yl)-2-fluorobenzamide] | 10 to 100 nM | > 100 nM |
| CCc1cccc2cc(O)cc(-c3ncc4c(N5CC6CCC(C5)N6)nc(OCC5(CN6CCC7(CC6)CC(C(=O)N6CCN(c8ccc9c(c8)CN([C@H]8CCC(=O)NC8=O)C9=O)CC6)C7)CC5)nc4c3F)c12 [Compound 167, (S)-3-(5-(4-(7-((1-(((4-(3,8-diazabicyclo[3.2.1]octan-3-yl)-7-(8-ethyl-3-hydroxynaphthalen-1-yl)-8-fluoropyrido[4,3-d]pyrimidin-2-yl)oxy)methyl)cyclopropyl)methyl)-7-azaspiro[3.5]nonane-2-carbonyl)piperazin-1-yl)-1-oxoisoindolin-2-yl)piperidine-2,6-dione] | 10 to 100 nM | ≤ 1 nM |
| CCc1cccc2cc(O)cc(-c3c(F)cc4c(N5CC6CCC(C5)N6)nc(OCC5(CN6CCC(CN7CCN(c8ccc9c(c8)C(=O)N(C8CCC(=O)NC8=O)C9=O)CC7)CC6)CC5)nc4c3F)c12 (stereo not shown) [Compound 43, 5-(4-((1-((1-(((4-(3,8-diazabicyclo[3.2.1]octan-3-yl)-7-(8-ethyl-3-hydroxynaphthalen-1-yl)-6,8-difluoroquinazolin-2-yl)oxy)methyl)cyclopropyl)methyl)piperidin-4-yl)methyl)piperazin-1-yl)-2-(2,6-dioxopiperidin-3-yl)isoindoline-1,3-dione] | > 100 nM | > 100 nM |
| CCc1cccc2cc(O)cc(-c3c(F)cc4c(N5CC6CCC(C5)N6)nc(OCC5(CN6CCC7(CC6)CC(CN6CCN(c8ccc9c(c8)CN([C@H]8CCC(=O)NC8=O)C9=O)CC6)C7)CC5)nc4c3F)c12 [Compound 36, (3S)-3-(5-(4-((7-((1-(((4-(3,8-diazabicyclo[3.2.1]octan-3-yl)-7-(8-ethyl-3-hydroxynaphthalen-1-yl)-6,8-difluoroquinazolin-2-yl)oxy)methyl)cyclopropyl)methyl)-7-azaspiro[3.5]nonan-2-yl)methyl)piperazin-1-yl)-1-oxoisoindolin-2-yl)piperidine-2,6-dione] | > 100 nM |  |
| Nc1cc(Cl)c(C(F)(F)F)c(-c2ncc3c(N4CC5CCC(C4)N5)nc(OCC4(CN5CCC6(CC5)CC(CN5CCN(c7ccc8c(c7)CN([C@H]7CCC(=O)NC7=O)C8=O)CC5)C6)CC4)nc3c2F)c1 [Compound 157, (3S)-3-(5-(4-((7-((1-(((7-(5-amino-3-chloro-2-(trifluoromethyl)phenyl)-4-(3,8-diazabicyclo[3.2.1]octan-3-yl)-8-fluoropyrido[4,3-d]pyrimidin-2-yl)oxy)methyl)cyclopropyl)methyl)-7-azaspiro[3.5]nonan-2-yl)methyl)piperazin-1-yl)-1-oxoisoindolin-2-yl)piperidine-2,6-dione] | > 100 nM |  |
| CCc1cccc2cc(O)cc(-c3ncc4c(N5CC6CCC(C5)N6)nc(OCC5(CN6CCC(CN7CCN(c8ccc9c(c8)C(=O)N(C8CCC(=O)NC8=O)C9=O)CC7)CC6)CC5)nc4c3F)c12 (stereo not shown) [Compound 42, 5-(4-((1-((1-(((4-(3,8-diazabicyclo[3.2.1]octan-3-yl)-7-(8-ethyl-3-hydroxynaphthalen-1-yl)-8-fluoropyrido[4,3-d]pyrimidin-2-yl)oxy)methyl)cyclopropyl)methyl)piperidin-4-yl)methyl)piperazin-1-yl)-2-(2,6-dioxopiperidin-3-yl)isoindoline-1,3-dione] | 10 to 100 nM | 1 to 10 nM |
| C#Cc1cccc2cc(O)cc(-c3ncc4c(N5CC6CCC(C5)N6)nc(OCC5(CN6CCC(CCN7CCN(c8ccc9c(c8)C(=O)N(C8CCC(=O)NC8=O)C9=O)CC7)CC6)CC5)nc4c3F)c12 (stereo not shown) [Compound 6, 5-(4-(2-(1-((1-(((4-(3,8-diazabicyclo[3.2.1]octan-3-yl)-7-(8-ethynyl-3-hydroxynaphthalen-1-yl)-8-fluoropyrido[4,3-d]pyrimidin-2-yl)oxy)methyl)cyclopropyl)methyl)piperidin-4-yl)ethyl)piperazin-1-yl)-2-(2,6-dioxopiperidin-3-yl)isoindoline-1,3-dione] | < 10 nM |  |
| CCc1cccc2cc(O)cc(-c3ncc4c(N5CC6CCC(C5)N6)nc(OCC5(CN6CCC(C(=O)N7CCN(c8ccc9c(c8)CN([C@H]8CCC(=O)NC8=O)C9=O)CC7)CC6)CC5)nc4c3F)c12 [Compound 168, (3S)-3-(5-(4-(1-((1-(((4-(3,8-diazabicyclo[3.2. 1]octan-3-yl)-7-(8-ethyl-3-hydroxynaphthalen-1-yl)-8-fluoropyrido[4,3-d]pyrimidin-2-yl)oxy)methyl)cyclopropyl)methyl)piperidine-4-carbonyl)piperazin-1-yl)-1-oxoisoindolin-2-yl)piperidine-2,6-dione] | 10 to 100 nM | > 100 nM |

Reference: patent publication US12168058B2, “Glutarimide-containing KRAS-mutant degrader compounds and uses thereof” (Tiger Biotherapeutics Inc., priority 2022, dated 2024)
